{RR} = two arginine residues at the PNA terminus
Tests used:
SUDHL-2 tumors = assay: Tumor growth in SUDHL-2 derived xenograft; format: in vivo, NSG mice; details: SUDHL-2 xenograft, intratumoral, compared to Scr-γtcPNA-155 and PNA-155 control
Protocol: Data represented as mean±standard error mean (SEM). Scr-γtcPNA-155 (n=4), PNA-155 (n=5), γtcPNA-155 (n=5), *p<0.05, **p<0.01, ***p<0.001, ****p<0.0001. Multiple t-tests one per row was used for statistical analysis.
For SUDHL-2 xenografts, 1×10^7 SUDHL-2 cells suspended in RPMI-1640 medium were injected subcutaneously in the right and left flank of 6-week-old NSG mice. The mice developed a small bump in 2-3 weeks. When the tumor volume reached 100-200 mm^3, the mice were randomly allocated to the treatment group (n=5 per group).
Further, we corroborated our results in the SUDHL-2 derived xenograft mouse model. We injected the SUDHL-2 cells in the right and left flank of mice. After 14-21 days, when the tumor volume reached 100-200 mm3, the mice were randomized into three treatment groups based on uniform tumor volume distribution in each group. […] (FIG. 27)

miR-155 = miR-155 gene expression by RT-PCR in U2932 cells; format: cell-based, human; details: U2932, 500 nM, 48 hours, relative to scrambled control
Protocol: FIGS. 3A-F show cell culture-based functional assay in U2932 lymphoma cells. (3A) γtcPNA-155-TAMRA uptake in the U2932 lymphoma cell line: Representative flow cytometry traces of TAMRA fluorescence in U2932 cells after treatment with 500 nM dose of γtcPNA-155-TAMRA for 48 hours. The data was analyzed by FlowJo software. (3B) Normalized miR-155 gene expression levels in U2932 after treatment with phosphate buffer saline (PBS) as a control and with 500 nM dose of Scr-γtcPNA-155, PNA-155, γPNA-155 and γtcPNA-155 for 48 hours compared to average control U6 (n=3), data represented as mean±standard error mean (SEM), Statistical analysis was performed using Unpaired two-tailed t-test. Further, statistical analysis was performed relative to Scr-γtcPNA-155 treated cells. ***p<0.001. (3C) Gene expression level of miR-155 downstream genes, tumor suppressor proteins (FOXO3A, CUX1, SOCS1, CSF1R, JARID2, SHIP1, PICALM, PDCD4, BACH1, WEE1, TP53TG3, CASP3, PTEN) in U2932 cell line after treatment with PBS as a control and with after treatment with 500 nM of Scr-γtcPNA-155, PNA-155, γPNA-155 and γtcPNA-155 for 48 hours. Data is normalized with average GAPDH control (n=3), and represented as mean±SEM, *p<0.05. Unpaired two-tailed t-test was used for statistical analysis and analysis was performed relative to Scr-γtcPNA-155 treated cells. (3D) Gene expression level of miR-155 downstream genes MCL1 in U2932 cell line after treatment with PBS as a control and 500 nM of Scr-γtcPNA-155, PNA-155, γPNA-155 and γtcPNA-155 for 48 hours. Data is normalized with average GAPDH control (n=3), and represented as mean±SEM, *p<0.05, **p<0.01 and ***p<0.001. […] (3E) Representative western blot of Mcl-1 and its quantification (n=3 technical replicate) and (3F) Caspase-3 protein and its quantification (n=3 technical replicate) in U2932 cell line after treatment with 500 nM of Scr-γtcPNA-155, PNA-155 and γtcPNA-155 for 48 hours. […] Numbers above western blot panels represent relative quantification of the respective bands using ImageJ software and normalized relative to loading control and treatment control. […]

miR-155 downstream genes = assay: Gene expression of miR-155 downstream genes by RT-PCR in U2932 cells; format: cell-based, human; details: U2932, 500 nM, 48 hours
Protocol: FIGS. 3A-F show cell culture-based functional assay in U2932 lymphoma cells. (3A) γtcPNA-155-TAMRA uptake in the U2932 lymphoma cell line: Representative flow cytometry traces of TAMRA fluorescence in U2932 cells after treatment with 500 nM dose of γtcPNA-155-TAMRA for 48 hours. The data was analyzed by FlowJo software. (3B) Normalized miR-155 gene expression levels in U2932 after treatment with phosphate buffer saline (PBS) as a control and with 500 nM dose of Scr-γtcPNA-155, PNA-155, γPNA-155 and γtcPNA-155 for 48 hours compared to average control U6 (n=3), data represented as mean±standard error mean (SEM), Statistical analysis was performed using Unpaired two-tailed t-test. Further, statistical analysis was performed relative to Scr-γtcPNA-155 treated cells. ***p<0.001. (3C) Gene expression level of miR-155 downstream genes, tumor suppressor proteins (FOXO3A, CUX1, SOCS1, CSF1R, JARID2, SHIP1, PICALM, PDCD4, BACH1, WEE1, TP53TG3, CASP3, PTEN) in U2932 cell line after treatment with PBS as a control and with after treatment with 500 nM of Scr-γtcPNA-155, PNA-155, γPNA-155 and γtcPNA-155 for 48 hours. Data is normalized with average GAPDH control (n=3), and represented as mean±SEM, *p<0.05. Unpaired two-tailed t-test was used for statistical analysis and analysis was performed relative to Scr-γtcPNA-155 treated cells. (3D) Gene expression level of miR-155 downstream genes MCL1 in U2932 cell line after treatment with PBS as a control and 500 nM of Scr-γtcPNA-155, PNA-155, γPNA-155 and γtcPNA-155 for 48 hours. Data is normalized with average GAPDH control (n=3), and represented as mean±SEM, *p<0.05, **p<0.01 and ***p<0.001. Statistical analysis was performed using Unpaired two-tailed t-test. Analysis was performed relative to Scr-γtcPNA-155 treated cells. (3E) Representative western blot of Mcl-1 and its quantification (n=3 technical replicate) and (3F) Caspase-3 protein and its quantification (n=3 technical replicate) in U2932 cell line after treatment with 500 nM of Scr-γtcPNA-155, PNA-155 and γtcPNA-155 for 48 hours. Data is represented as mean±SEM and unpaired two-tailed t-test was used for statistical analysis. *p<0.05 **p<0.01. Numbers above western blot panels represent relative quantification of the respective bands using ImageJ software and normalized relative to loading control and treatment control.
Gene expression by RT-PCR: 400,000 U2932 cells were seeded in a 12 well plate. The cells were treated with 500 nM PNA-155, gamma tcPNA-155, gamma PNA-155, Scr gamma tcPNA-155 or were PBS treated (control) for 48 hrs in an incubator (37° C. and 5% CO2). The cells were centrifuged at 2000 rpm for 4 mins at 4° C. The total RNA from the cell pellet was extracted using RNeasy® mini kit (Qiagen). The cDNA was prepared in thermal cycler (Bio-rad) using reverse transcriptase, RNase inhibitor, dNTPs, nuclease-free water and RT primers specific for miR-155 and U6. Random primers were used for the preparation of cDNA for downstream targets. The cDNA was amplified using miR-155 assay, U6 assay, or specific downstream target assays in CFX Connect™ Real-time PCR detection system (Bio-rad). The samples were subjected to polymerase activation (95° C. for 10 mins), followed by 40 cycles of denaturation (95° C. for 15 sec) and annealing (60° C. for 1 min). The 2^−ΔΔCT method was used to calculate the fold change in target genes.

Row | Substance | tumor growth (SUDHL-2 tumors) | miR-155 inhibition (miR-155) | de-repression of miR-155 target tumor suppressor genes (miR-155 downstream genes) | reduction in MCL1 gene expression levels (miR-155 downstream genes) | increase in CSF1R levels (miR-155 downstream genes; in comparison to PNA-155) | increase in CUX1 levels (miR-155 downstream genes; in comparison to PNA-155) | increase in SHIP1 levels (miR-155 downstream genes; in comparison to PNA-155)
1 | γtcPNA-155: serine gamma tail-clamp anti-miR-155 PNA, RR-TJJJJ-OOO-ACCCCTATCACGATTAGCATTAA-RR, SEQ ID NO: 3 (all peptide nucleic acid (PNA); serine gamma PNA, tail-clamp TJJJJ via linkers, Arg-Arg at both ends) | reduced the tumor growth | ~90% | significant de-repression | 40% | 1.8 fold | 1.6 fold | 1.4 fold
2 | PNA-155: conventional full-length regular PNA (23mer), RR-ACCCCTATCACGATTAGCATTAA-RR, SEQ ID NO: 1 (all peptide nucleic acid (PNA), 5' {RR}, 3' {RR}) [reference compound] |  | approximately 80% |  | 10% |  |  | 

— US20260092085A1, “SYNTHETIC TRIPLEX PEPTIDE NUCLEIC ACID-BASED INHIBITORS FOR CANCER THERAPY” (University of Connecticut, priority 2022, published 2026)
